From PMC6081437, “The potency of the broad spectrum bacteriocin, bactofencin A, against staphylococci is highly dependent on primary structure, N-terminal charge and disulphide formation” (Scientific Reports, 2018) come the findings set out here.

Bridge positions count the residues as written; N and C are the ends. Square brackets hold non-standard residues; d marks the D form. Ends that are not written are not given here. Peptide text beside a SMILES is read from it.

The experiment relates to S. aureus DPC5246. The class given is cell-based, Staphylococcus aureus. Particulars: for Activity (Minimum Inhibitory Concentration, MIC): DPC5246, pH 6.8; for fold reduction in activity compared with bactofencin A (wild type): S. aureus DPC5246, agar well diffusion MIC. As for the experimental part:
Peptides were resuspended at 1000 µM in 50 mM sodium phosphate buffer pH 6.8 and checked for purity by MALDI-TOF-MS. Peptides were serially diluted 1 in 4 to give a dilution series of 250, 62.50, 15.63, 3.91, 0.98 and 0.24 µM and assayed by the agar well diffusion assay described by Ryan et al.[19]. Briefly, 50 µl aliquots of each peptide concentration were plated on a S. aureus DPC5246 indicator plate and the plate incubated at 37 °C. Peptide activity (Minimum Inhibitory Concentration (MIC)) was taken as the lowest concentration of peptide to give a zone of inhibition. All assays were performed in triplicate. The dilution series values were rounded to the nearest whole number to give 1000, 250, 63, 16, 4, 1 and 0.25 µM and data is colour coded for ease of interpretation.
(Agar diffusion results depend on both activity and mobility in agar.)

`CSCC[C@@H]1NC(=O)CNC(=O)[C@H]([C@@H](C)O)NC(=O)[C@@H]2CCCN2C(=O)[C@H](CCSC)NC(=O)CNC(=O)[C@H](CC(N)=O)NC(=O)[C@H](CC(N)=O)NC(=O)[C@H](Cc2ccc(O)cc2)NC(=O)[C@H](C(C)C)NC(=O)[C@H](CCCNC(=N)N)NC(=O)[C@@H](NC(=O)[C@H](CCCNC(=N)N)NC(=O)[C@H](Cc2c[nH]cn2)NC(=O)[C@H](CCCCN)NC(=O)[C@H](CCCCN)NC(=O)[C@@H](N)CCCNC(=N)N)CSSC[C@@H](C(=O)O)NC(=O)[C@H](Cc2c[nH]c3ccccc23)NC(=O)[C@H](CCCNC(=N)N)NC(=O)[C@H](Cc2ccc(O)cc2)NC1=O` [R2-C22] (H-RKKHRCRVYNNGMPTGMYRWC-OH; disulfide 6-21; N-terminus assumed): the “Activity (Minimum Inhibitory Concentration, MIC)” value is 1 µM. In addition, the “activity compared with bactofencin A, in words” value (S. aureus DPC5246, agar well diffusion) is “no effect on activity”. Regarding `CSCC[C@@H]1NC(=O)CNC(=O)[C@H]([C@@H](C)O)NC(=O)[C@@H]2CCCN2C(=O)[C@H](CCSC)NC(=O)CNC(=O)[C@H](CC(N)=O)NC(=O)[C@H](CC(N)=O)NC(=O)[C@H](Cc2ccc(O)cc2)NC(=O)[C@H](C(C)C)NC(=O)[C@H](CCCNC(=N)N)NC(=O)[C@@H](NC(=O)[C@H](CCCNC(=N)N)NC(=O)[C@H](Cc2c[nH]cn2)NC(=O)[C@H](CCCCN)NC(=O)[C@H](CCCCN)NC(=O)[C@H](CCCNC(=N)N)NC(=O)[C@@H](N)CCCCN)CSSC[C@H](C(=O)O)NC(=O)[C@H](Cc2c[nH]c3ccccc23)NC(=O)[C@H](CCCNC(=N)N)NC(=O)[C@H](Cc2ccc(O)cc2)NC1=O` [C22Cd] (H-KRKKHRCRVYNNGMPTGMYRW[dC]-OH; disulfide 7-22; N-terminus assumed), the “Activity (Minimum Inhibitory Concentration, MIC)” value was 4 µM. Take `CSCC[C@@H]1NC(=O)CNC(=O)[C@H]([C@@H](C)O)NC(=O)[C@@H]2CCCN2C(=O)[C@H](CCSC)NC(=O)CNC(=O)[C@H](CC(N)=O)NC(=O)[C@H](C)NC(=O)[C@H](Cc2ccc(O)cc2)NC(=O)[C@H](C(C)C)NC(=O)[C@H](CCCNC(=N)N)NC(=O)[C@@H](NC(=O)[C@H](CCCNC(=N)N)NC(=O)[C@H](Cc2c[nH]cn2)NC(=O)[C@H](CCCCN)NC(=O)[C@H](CCCCN)NC(=O)[C@H](CCCNC(=N)N)NC(=O)[C@@H](N)CCCCN)CSSC[C@@H](C(=O)O)NC(=O)[C@H](Cc2c[nH]c3ccccc23)NC(=O)[C@H](CCCNC(=N)N)NC(=O)[C@H](Cc2ccc(O)cc2)NC1=O` [N11A] (H-KRKKHRCRVYANGMPTGMYRWC-OH; disulfide 7-22): the “Activity (Minimum Inhibitory Concentration, MIC)” value came out at 16 µM.

Regarding `CSCC[C@@H]1NC(=O)CNC(=O)[C@H]([C@@H](C)O)NC(=O)[C@@H]2CCCN2C(=O)[C@H](CCSC)NC(=O)CNC(=O)[C@H](C)NC(=O)[C@H](CC(N)=O)NC(=O)[C@H](Cc2ccc(O)cc2)NC(=O)[C@H](C(C)C)NC(=O)[C@H](CCCNC(=N)N)NC(=O)[C@@H](NC(=O)[C@H](CCCNC(=N)N)NC(=O)[C@H](Cc2c[nH]cn2)NC(=O)[C@H](CCCCN)NC(=O)[C@H](CCCCN)NC(=O)[C@H](CCCNC(=N)N)NC(=O)[C@@H](N)CCCCN)CSSC[C@@H](C(=O)O)NC(=O)[C@H](Cc2c[nH]c3ccccc23)NC(=O)[C@H](CCCNC(=N)N)NC(=O)[C@H](Cc2ccc(O)cc2)NC1=O` [N12A] (H-KRKKHRCRVYNAGMPTGMYRWC-OH; disulfide 7-22), the “Activity (Minimum Inhibitory Concentration, MIC)” value amounted to 4 µM.

For the molecule `CSCC[C@@H]1NC(=O)CNC(=O)[C@H]([C@@H](C)O)NC(=O)[C@@H]2CCCN2C(=O)[C@H](CCSC)NC(=O)CNC(=O)[C@H](CC(N)=O)NC(=O)[C@H](CC(N)=O)NC(=O)[C@H](Cc2ccc(O)cc2)NC(=O)[C@H](C(C)C)NC(=O)[C@H](CCCNC(=N)N)NC(=O)[C@@H](N)CSSC[C@@H](C(=O)O)NC(=O)[C@H](Cc2c[nH]c3ccccc23)NC(=O)[C@H](CCCNC(=N)N)NC(=O)[C@H](Cc2ccc(O)cc2)NC1=O` [C7-C22] (H-CRVYNNGMPTGMYRWC-OH; disulfide 1-16; N-terminus assumed), the “Activity (Minimum Inhibitory Concentration, MIC)” value is > 1000 µM. In the case of `CSCC[C@@H]1NC(=O)CNC(=O)[C@H]([C@@H](C)O)NC(=O)[C@@H]2CCCN2C(=O)[C@H](CCSC)NC(=O)CNC(=O)[C@H](CC(N)=O)NC(=O)[C@H](CC(N)=O)NC(=O)[C@H](Cc2ccc(O)cc2)NC(=O)[C@H](C(C)C)NC(=O)[C@H](CCCNC(=N)N)NC(=O)[C@@H](NC(=O)[C@H](CCCNC(=N)N)NC(=O)[C@H](Cc2c[nH]cn2)NC(=O)[C@H](C)NC(=O)[C@H](CCCCN)NC(=O)[C@H](CCCNC(=N)N)NC(=O)[C@@H](N)CCCCN)CSSC[C@@H](C(=O)O)NC(=O)[C@H](Cc2c[nH]c3ccccc23)NC(=O)[C@H](CCCNC(=N)N)NC(=O)[C@H](Cc2ccc(O)cc2)NC1=O` [K4A] (H-KRKAHRCRVYNNGMPTGMYRWC-OH; disulfide 7-22), the “Activity (Minimum Inhibitory Concentration, MIC)” value is on record as 1 µM. As to KRKKHRARVYNNGMPTGMYRWA [C7A-C22A], the “Activity (Minimum Inhibitory Concentration, MIC)” value is 16 µM and the “fold reduction in activity compared with bactofencin A (wild type)” value amounted to 16 fold.

On to `CSCC[C@@H]1NC(=O)CNC(=O)[C@H]([C@@H](C)O)NC(=O)[C@@H]2CCCN2C(=O)[C@H](CCSC)NC(=O)CNC(=O)[C@H](CC(N)=O)NC(=O)[C@H](CC(N)=O)NC(=O)[C@H](Cc2ccc(O)cc2)NC(=O)[C@H](C(C)C)NC(=O)[C@H](CCCNC(=N)N)NC(=O)[C@H](NC(=O)[C@H](CCCNC(=N)N)NC(=O)[C@H](Cc2c[nH]cn2)NC(=O)[C@H](CCCCN)NC(=O)[C@H](CCCCN)NC(=O)[C@H](CCCNC(=N)N)NC(=O)[C@@H](N)CCCCN)CSSC[C@@H](C(=O)O)NC(=O)[C@H](Cc2c[nH]c3ccccc23)NC(=O)[C@H](CCCNC(=N)N)NC(=O)[C@H](Cc2ccc(O)cc2)NC1=O` [C7Cd] (H-KRKKHR[dC]RVYNNGMPTGMYRWC-OH; disulfide 7-22; N-terminus assumed), for which the “Activity (Minimum Inhibitory Concentration, MIC)” value is given as 16 µM.

With `CSCC[C@@H]1NC(=O)CNC(=O)[C@H]([C@@H](C)O)NC(=O)[C@@H]2CCCN2C(=O)[C@H](CCSC)NC(=O)CNC(=O)[C@H](CC(N)=O)NC(=O)[C@H](CC(N)=O)NC(=O)[C@H](Cc2ccc(O)cc2)NC(=O)[C@H](C(C)C)NC(=O)[C@H](CCCNC(=N)N)NC(=O)[C@@H](NC(=O)[C@H](CCCNC(=N)N)NC(=O)[C@H](Cc2c[nH]cn2)NC(=O)[C@@H](N)CCCCN)CSSC[C@@H](C(=O)O)NC(=O)[C@H](Cc2c[nH]c3ccccc23)NC(=O)[C@H](CCCNC(=N)N)NC(=O)[C@H](Cc2ccc(O)cc2)NC1=O` [K4-C22] (H-KHRCRVYNNGMPTGMYRWC-OH; disulfide 4-19; N-terminus assumed), the “Activity (Minimum Inhibitory Concentration, MIC)” value is recorded as 4 µM. With `CSCC[C@@H]1NC(=O)CNC(=O)[C@H]([C@@H](C)O)NC(=O)[C@@H]2CCCN2C(=O)[C@H](CCSC)NC(=O)CNC(=O)[C@H](CC(N)=O)NC(=O)[C@H](CC(N)=O)NC(=O)[C@H](Cc2ccc(O)cc2)NC(=O)[C@H](C(C)C)NC(=O)[C@@H](CCCNC(=N)N)NC(=O)[C@@H](NC(=O)[C@H](CCCNC(=N)N)NC(=O)[C@H](Cc2c[nH]cn2)NC(=O)[C@H](CCCCN)NC(=O)[C@H](CCCCN)NC(=O)[C@H](CCCNC(=N)N)NC(=O)[C@@H](N)CCCCN)CSSC[C@@H](C(=O)O)NC(=O)[C@H](Cc2c[nH]c3ccccc23)NC(=O)[C@H](CCCNC(=N)N)NC(=O)[C@H](Cc2ccc(O)cc2)NC1=O` [R8Rd] (H-KRKKHRC[dR]VYNNGMPTGMYRWC-OH; disulfide 7-22; N-terminus assumed), the “Activity (Minimum Inhibitory Concentration, MIC)” value came out at 63 µM and the “fold reduction in activity compared with bactofencin A (wild type)” value was 63 fold.
